Data from patent US12540137B2, “N-1 branched alkyl ether substituted imidazo[4,5-c]quinoline compounds, compositions, and methods” (Solventum Intellectual Properties Company, priority 2018, dated 2026).

Columns and labels:
[1] = molecular target: T1, human TLR7 (Homo sapiens, UniProt Q9NYK1); assay: TLR activation, HEK-BLUE-hTLR7 SEAP reporter cells; type: cell-based; details: 16-20 hours, SEAP response at least 2× vehicle control, tested 0.01-30 micromolar
T1 construct: host or cells: HEK293 (HEK-BLUE-hTLR7)
T1 sequence (Q9NYK1 27-1049): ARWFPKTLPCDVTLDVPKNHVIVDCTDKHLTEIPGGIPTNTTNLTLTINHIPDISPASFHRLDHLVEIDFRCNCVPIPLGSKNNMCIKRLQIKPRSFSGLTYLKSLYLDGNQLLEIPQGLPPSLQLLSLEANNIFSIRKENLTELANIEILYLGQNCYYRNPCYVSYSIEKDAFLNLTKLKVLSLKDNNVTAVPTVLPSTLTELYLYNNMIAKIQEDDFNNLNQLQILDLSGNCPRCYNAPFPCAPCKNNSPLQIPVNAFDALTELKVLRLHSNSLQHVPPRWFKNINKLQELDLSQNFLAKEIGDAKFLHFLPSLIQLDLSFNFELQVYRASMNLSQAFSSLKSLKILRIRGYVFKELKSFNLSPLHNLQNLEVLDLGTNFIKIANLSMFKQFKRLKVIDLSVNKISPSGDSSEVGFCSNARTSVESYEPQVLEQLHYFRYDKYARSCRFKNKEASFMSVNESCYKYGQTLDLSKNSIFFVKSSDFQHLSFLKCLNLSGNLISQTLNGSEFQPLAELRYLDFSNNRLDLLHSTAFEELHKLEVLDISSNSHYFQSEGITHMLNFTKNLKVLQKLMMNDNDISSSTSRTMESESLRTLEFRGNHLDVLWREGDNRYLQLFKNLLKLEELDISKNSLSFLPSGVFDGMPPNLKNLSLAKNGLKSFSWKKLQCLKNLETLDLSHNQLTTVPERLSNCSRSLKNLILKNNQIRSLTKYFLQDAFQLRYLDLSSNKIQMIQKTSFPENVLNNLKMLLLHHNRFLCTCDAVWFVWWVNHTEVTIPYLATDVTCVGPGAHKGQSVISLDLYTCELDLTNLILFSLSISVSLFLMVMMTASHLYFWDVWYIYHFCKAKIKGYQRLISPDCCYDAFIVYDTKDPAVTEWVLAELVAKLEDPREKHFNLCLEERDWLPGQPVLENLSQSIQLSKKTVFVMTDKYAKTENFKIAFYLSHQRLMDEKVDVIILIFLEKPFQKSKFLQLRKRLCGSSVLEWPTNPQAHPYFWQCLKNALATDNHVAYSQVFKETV
Protocol: (§1) HEK-BLUE-hTLR7 or hTLR8 reporter cells were obtained from InvivoGen, San Diego, CA. According to the manufacturer's description, these reporter cells were prepared by co-transfection of HEK293 cells with an inducible secreted embryonic alkaline phosphatase (SEAP) reporter gene and either the human TLR7 or TLR8 gene. The SEAP reporter gene was placed under the control of an IFN−β minimal promoter fused to five NF-κB and AP-1-binding sites. In the presence of a TLR ligand, activation of NF-κB and AP-1 occurs, resulting in a corresponding increase in SEAP levels.
(§2) In the assay, the HEK cells were grown and maintained using standard cell culture techniques in a growth medium that contained Dulbecco's Modified Eagle Medium (ThermoFisher Scientific Incorporated, Waltham, MA) supplemented with 1% penicillin/streptomycin and 10% heat-inactivated Gibco fetal bovine serum (ThermoFisher Scientific). Each compound was solubilized in DMSO to create a 3 mM stock solution. The stock solution was then further diluted with the growth medium to prepare serial dilutions. Each test compound was tested at a concentration of 30, 10, 3.3, 1.1, 0.37, 0.12, 0.04, and 0.01 micromolar using a 96-well format with 5×10^4 cells and 200 microliters of growth medium per well.
(§3) For each compound, hTLR7, hTLR8, and their respective null control HEK cells were screened. DMSO serially diluted into the growth medium served as the vehicle control. Cell culture supernatants containing the SEAP reporter were collected after an incubation period of 16-20 hours in a cell culture incubator (37° C. and 5% CO2), and either analyzed immediately or stored at −80° C. SEAP levels were measured using the colorimetric enzyme assay (QUANTI-BLUE (InvivoGen) according to manufacturer's instructions.
(§4) Specifically, the minimum effective concentration of each compound (micromolar) was determined as the lowest concentration of the compound that produced a SEAP expression response at least 2× greater than that observed with the vehicle control wells.

[2] = molecular target: T2, human TLR8 (Homo sapiens, UniProt Q9NR97); assay: TLR activation, HEK-BLUE-hTLR8 SEAP reporter cells; type: cell-based; details: 16-20 hours, SEAP response at least 2× vehicle control, tested 0.01-30 micromolar
T2 construct: host or cells: HEK293 (HEK-BLUE-hTLR8)
T2 sequence (Q9NR97 27-1041): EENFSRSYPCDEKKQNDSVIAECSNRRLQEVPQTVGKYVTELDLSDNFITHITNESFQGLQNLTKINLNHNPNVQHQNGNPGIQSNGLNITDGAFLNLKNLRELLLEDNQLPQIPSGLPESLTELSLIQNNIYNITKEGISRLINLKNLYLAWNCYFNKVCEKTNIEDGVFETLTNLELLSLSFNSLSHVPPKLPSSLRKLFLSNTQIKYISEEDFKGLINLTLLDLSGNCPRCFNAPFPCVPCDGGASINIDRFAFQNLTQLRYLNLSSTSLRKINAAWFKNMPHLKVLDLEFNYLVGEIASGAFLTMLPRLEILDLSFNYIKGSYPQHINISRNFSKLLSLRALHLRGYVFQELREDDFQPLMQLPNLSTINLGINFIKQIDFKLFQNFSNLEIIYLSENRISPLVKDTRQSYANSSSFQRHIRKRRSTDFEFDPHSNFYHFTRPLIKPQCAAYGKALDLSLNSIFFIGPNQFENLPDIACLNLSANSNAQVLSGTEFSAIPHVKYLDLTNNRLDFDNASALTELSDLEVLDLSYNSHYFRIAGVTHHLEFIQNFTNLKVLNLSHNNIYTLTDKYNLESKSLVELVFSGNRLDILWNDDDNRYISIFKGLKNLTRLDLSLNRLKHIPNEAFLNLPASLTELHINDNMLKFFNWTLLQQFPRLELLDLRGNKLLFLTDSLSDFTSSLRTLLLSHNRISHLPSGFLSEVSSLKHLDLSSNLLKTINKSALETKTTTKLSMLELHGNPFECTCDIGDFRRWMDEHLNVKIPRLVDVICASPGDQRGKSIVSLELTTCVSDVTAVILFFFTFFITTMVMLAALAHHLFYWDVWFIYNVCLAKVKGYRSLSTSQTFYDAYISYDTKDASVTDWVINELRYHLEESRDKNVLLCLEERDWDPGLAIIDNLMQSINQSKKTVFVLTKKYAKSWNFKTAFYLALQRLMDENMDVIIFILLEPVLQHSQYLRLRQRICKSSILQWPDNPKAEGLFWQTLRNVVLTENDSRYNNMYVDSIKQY
Protocol: as §1, §2, §3, §4

| SMILES | MEC to Produce TLR Activation TLR 7 [1] [µM] | MEC to Produce TLR Activation TLR 8 [2] [µM] |
| --- | --- | --- |
| CCOC[C@H](C(C)C)n1cnc2c(N)nc3ccccc3c21 [Example 1, 1-[(1S)-1-(ethoxymethyl)-2-methyl-propyl]imidazo[4,5-c]quinolin-4-amine] | 0.12 | 30 |
| CCOC[C@@H](C(C)C)n1cnc2c(N)nc3ccccc3c21 [Example 2, 1-[(1R)-1-(ethoxymethyl)-2-methyl-propyl]imidazo[4,5-c]quinolin-4-amine] | 3.3 | >30 |
| CCOC[C@H](C(C)C)n1c(C)nc2c(N)nc3ccccc3c21 [Example 3, 1-[(1S)-1-(ethoxymethyl)-2-methyl-propyl]-2-methyl-imidazo[4,5-c]quinolin-4-amine] | 1.1 | 30 |
| CCOC[C@@H](C(C)C)n1c(C)nc2c(N)nc3ccccc3c21 [Example 4, 1-[(1R)-1-(ethoxymethyl)-2-methyl-propyl]-2-methyl-imidazo[4,5-c]quinolin-4-amine] | >30 | >30 |
| CCOC[C@@H](n1cnc2c(N)nc3ccccc3c21)C(C)(C)O [Example 5, (3R)-3-(4-aminoimidazo[4,5-c]quinolin-1-yl)-4-ethoxy-2-methyl-butan-2-ol] | ≤0.01 | 3.3 |
| CCOC[C@H](n1cnc2c(N)nc3ccccc3c21)C(C)(C)O [Example 6, (3S)-3-(4-aminoimidazo[4,5-c]quinolin-1-yl)-4-ethoxy-2-methyl-butan-2-ol] | >30 | >30 |
| CCOC[C@@H](n1c(C)nc2c(N)nc3ccccc3c21)C(C)(C)O [Example 7, (3R)-3-(4-amino-2-methyl-imidazo[4,5-c]quinolin-1-yl)-4-ethoxy-2-methyl-butan-2-ol] | 0.37 | 1.1 |

The remaining lines, values ahead:

| MEC to Produce TLR Activation TLR 7 [1] [µM] | MEC to Produce TLR Activation TLR 8 [2] [µM] | SMILES |
| --- | --- | --- |
| 10 | 10 | CCOC[C@@H](n1c(CC)nc2c(N)nc3ccccc3c21)C(C)(C)O [Example 8, (3R)-3-(4-amino-2-ethyl-imidazo[4,5-c]quinolin-1-yl)-4-ethoxy-2-methyl-butan-2-ol] |
| ≤0.01 | 30 | CCOC[C@@H](n1cnc2c(N)nc3ccccc3c21)C(C)(C)C [Example 9, 1-[(1S)-1-(ethoxymethyl)-2,2-dimethyl-propyl]imidazo[4,5-c]quinolin-4-amine] |
| 30 | >30 | CCOC[C@H](n1cnc2c(N)nc3ccccc3c21)C(C)(C)C [Example 10, 1-[(1R)-1-(ethoxymethyl)-2,2-dimethyl-propyl]imidazo[4,5-c]quinolin-4-amine] |
| 0.04 | >30 | COC[C@@H](n1cnc2c(N)nc3ccccc3c21)C(C)(C)C [Example 11, 1-[(1S)-1-(methoxymethyl)-2,2-dimethyl-propyl]imidazo[4,5-c]quinolin-4-amine] |
| 0.04 | 30 | CCOC[C@@H](n1cnc2c(N)nc3ccccc3c21)C(O)(CC)CC [Example 12, (2R)-2-(4-aminoimidazo[4,5-c]quinolin-1-yl)-1-ethoxy-3-ethyl-pentan-3-ol] |
| 3.3 | 10 | CCO[C@@H](C)[C@@H](n1cnc2c(N)nc3ccccc3c21)C(C)(C)O [Example 13, (3R,4S)-3-(4-aminoimidazo[4,5-c]quinolin-1-yl)-4-ethoxy-2-methyl-pentan-2-ol] |
